Reference: PubChem BioAssay AID248 (DTP/NCI, 2004)
Toxic doses and inconclusive results are not listed. No stated cut-off is given here; in the data, active means T/C of 150% or more; inactive means T/C below 125%.

Test system: L1210 leukemia ip in BDF1 mice, survival T/C
Experiment: NCI In Vivo Anticancer Drug Screen. Data for tumor model L1210 Leukemia (intraperitoneal) in B6D2F1 (BDF1) mice
Details: endpoint: mean survival time, higher = longer survival
In short: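 Transplantable tumor model; survival measured in treated vs vehicle control mice. Value = treated/control.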

[1] = dose: 100.0 mg/kg/injection, schedule: Q01DX001 (ip), vehicle: saline with Tween-80
[2] = dose: 200.0 mg/kg/injection, schedule: Q01DX001 (ip), vehicle: saline with Tween-80
[3] = dose: 100.0 mg/kg/injection, schedule: Q04DX003 (ip), vehicle: Klucel (hydroxypropylcellulose) (HPC)
[4] = dose: 200.0 mg/kg/injection, schedule: Q04DX003 (ip), vehicle: Klucel (hydroxypropylcellulose) (HPC)
[5] = dose: 100.0 mg/kg/injection, schedule: Q01DX009 (ip), vehicle: saline with Tween-80
[6] = dose: 200.0 mg/kg/injection, schedule: Q01DX009 (ip), vehicle: saline with Tween-80
[7] = dose: 400.0 mg/kg/injection, schedule: Q01DX009 (ip), vehicle: saline with Tween-80
[8] = dose: 100.0 mg/kg/injection, schedule: Q01DX009 (ip), vehicle: Klucel (hydroxypropylcellulose) (HPC)
[9] = dose: 200.0 mg/kg/injection, schedule: Q01DX009 (ip), vehicle: Klucel (hydroxypropylcellulose) (HPC)
[10] = dose: 400.0 mg/kg/injection, schedule: Q01DX009 (ip), vehicle: Klucel (hydroxypropylcellulose) (HPC)
[11] = dose: 400.0 mg/kg/injection, schedule: Q04DX003 (ip), vehicle: Klucel (hydroxypropylcellulose) (HPC)
[12] = dose: 40.0 mg/kg/injection, schedule: Q01DX Z (ip), vehicle: carboxymethylcellulose (CMC)
[13] = dose: 60.0 mg/kg/injection, schedule: Q01DX Z (ip), vehicle: carboxymethylcellulose (CMC)
[14] = dose: 90.0 mg/kg/injection, schedule: Q01DX Z (ip), vehicle: carboxymethylcellulose (CMC)
[15] = dose: 100.0 mg/kg/injection, schedule: Q01DX001 (ip), vehicle: saline
[16] = dose: 200.0 mg/kg/injection, schedule: Q01DX001 (ip), vehicle: saline
[17] = dose: 400.0 mg/kg/injection, schedule: Q01DX001 (ip), vehicle: saline

Measured: T/C

COc1ccc(-n2cnc3c(=O)[nH]c(N)nc32)cc1NC(=O)Nc1cccc(S(=O)(=O)F)c1
inactive: dose: 50.0 mg/kg/injection, schedule: Q01DX001 (ip), vehicle: saline with Tween-80 95 % of control | [1] 92 % of control | [2] 100 % of control

CC(=O)Nc1ncnc2c1ncn2Cc1ccccc1
inactive: dose: 100.0 mg/kg/injection, schedule: Q04DX003 (ip), vehicle: saline with Tween-80 99 % of control | dose: 200.0 mg/kg/injection, schedule: Q04DX003 (ip), vehicle: saline with Tween-80 93 % of control

CC(=O)NCCCc1c(C)nc(N)[nH]c1=O
inactive: dose: 62.5 mg/kg/injection, schedule: Q01DX001 (ip), vehicle: Klucel (hydroxypropylcellulose) (HPC) 102 % of control | dose: 125.0 mg/kg/injection, schedule: Q01DX001 (ip), vehicle: Klucel (hydroxypropylcellulose) (HPC) 102 % of control | dose: 250.0 mg/kg/injection, schedule: Q01DX001 (ip), vehicle: Klucel (hydroxypropylcellulose) (HPC) 102 % of control

CC(=O)NN1C(=O)c2ccccc2C1=O
inactive: dose: 50.0 mg/kg/injection, schedule: Q04DX003 (ip), vehicle: Klucel (hydroxypropylcellulose) (HPC) 97 % of control | [3] 104 % of control | [4] 101 % of control

CCCCCCCCOc1ccc(C(=O)O)cc1
inactive: [5] 96 % of control | [6] 96 % of control | [7] 92 % of control

CCCCNC(=O)Nc1ccc(C)c(Cl)c1
inactive: [8] 96 % of control | [3] 94 % of control | [9] 94 % of control | [4] 94 % of control | [10] 89 % of control | [11] 100 % of control

CC(=O)OC1CCC2(C)C(=CCC3C2CCC2(C)C(OC(=O)c4ccccc4)CCC32)C1 (stereo not drawn)
inactive: [5] 89 % of control | [6] 110 % of control | [7] 96 % of control

CCC(C)OC(=O)Nc1cccc(OC(=O)N(CC)CC)c1 (stereo not drawn)
inactive: [1] 103 % of control | [2] 90 % of control | dose: 400.0 mg/kg/injection, schedule: Q01DX001 (ip), vehicle: saline with Tween-80 100 % of control

CCN(CC)CCNc1ccc([N+](=O)[O-])c2sc3ccccc3c(=O)c12
inactive: dose: 17.7 mg/kg/injection, schedule: Q01DX Z (ip), vehicle: carboxymethylcellulose (CMC) 121 % of control | dose: 126.0 mg/kg/injection, schedule: Q01DX Z (ip), vehicle: methylcellulose (MC) 115 % of control
active: dose: 37.0 mg/kg/injection, schedule: Q01DX Z (ip), vehicle: methylcellulose (MC) 223 % of control | [12] 152 % of control | dose: 56.0 mg/kg/injection, schedule: Q01DX Z (ip), vehicle: methylcellulose (MC) 201 % of control | [13] 156 % of control | [14] 181 % of control

Cc1nc(Br)c2cnccn12
inactive: dose: 12.5 mg/kg/injection, schedule: Q01DX009 (ip), vehicle: saline 106 % of control | dose: 12.5 mg/kg/injection, schedule: Q04DX003 (ip), vehicle: saline 98 % of control | dose: 25.0 mg/kg/injection, schedule: Q01DX009 (ip), vehicle: saline 103 % of control | dose: 25.0 mg/kg/injection, schedule: Q04DX003 (ip), vehicle: saline 97 % of control | dose: 50.0 mg/kg/injection, schedule: Q04DX003 (ip), vehicle: saline 97 % of control

c1ccc(-c2cncc(CNCc3cncc(-c4ccccc4)c3)c2)cc1
inactive: dose: 100.0 mg/kg/injection, schedule: Q01DX001 (ip), vehicle: Klucel (hydroxypropylcellulose) (HPC) 102 % of control | dose: 200.0 mg/kg/injection, schedule: Q01DX001 (ip), vehicle: Klucel (hydroxypropylcellulose) (HPC) 95 % of control | dose: 400.0 mg/kg/injection, schedule: Q01DX001 (ip), vehicle: Klucel (hydroxypropylcellulose) (HPC) 110 % of control

NCCOS(=O)(=O)O
inactive: [8] 105 % of control | [5] 92 % of control | [9] 101 % of control | [6] 108 % of control | [10] 100 % of control | [7] 99 % of control

CCOP(=O)(NC=S)OCC
inactive: dose: 75.0 mg/kg/injection, schedule: Q01DX001 (ip), vehicle: saline 96 % of control

CN1CN(c2ccccc2)C2(CCN(C(=O)/C=C/c3ccc(F)cc3)CC2)C1=O
inactive: dose: 75.0 mg/kg/injection, schedule: Q04DX003 (ip), vehicle: Klucel (hydroxypropylcellulose) (HPC) 92 % of control | dose: 150.0 mg/kg/injection, schedule: Q04DX003 (ip), vehicle: Klucel (hydroxypropylcellulose) (HPC) 88 % of control

CC1(C(=O)O)OCCO1
inactive: [5] 94 % of control | [6] 90 % of control

Nc1c(I)cc([N+](=O)[O-])cc1I
inactive: [3] 95 % of control | [4] 93 % of control | [11] 98 % of control

CCOC(=O)C(CCP(=O)(OCC)OCC)P(=O)(OCC)OCC (stereo not drawn)
inactive: dose: 12.5 mg/kg/injection, schedule: Q04DX002 (ip), vehicle: saline 99 % of control | dose: 25.0 mg/kg/injection, schedule: Q04DX002 (ip), vehicle: saline 96 % of control | dose: 50.0 mg/kg/injection, schedule: Q04DX002 (ip), vehicle: saline 115 % of control | [15] 101 % of control | [16] 95 % of control | [17] 98 % of control

CCCCCO/N=C\c1c2c(O)c3c(O)c(C)c4c(c3c1O)C(=O)C(C)(O/C=C\C(OC)C(C)C(OC(C)=O)C(C)C(O)C(C)C(O)C(C)/C=C\C=C(\C)C(=O)N2)O4 (stereo not drawn)
inactive: dose: 50.0 mg/kg/injection, schedule: Q04DX003 (ip), vehicle: water 100 % of control | dose: 100.0 mg/kg/injection, schedule: Q04DX003 (ip), vehicle: water 94 % of control | dose: 200.0 mg/kg/injection, schedule: Q04DX003 (ip), vehicle: water 100 % of control | dose: 400.0 mg/kg/injection, schedule: Q04DX003 (ip), vehicle: water 102 % of control

CCOC(=O)C(C)N (stereo not drawn)
inactive: [8] 93 % of control | [3] 105 % of control | [9] 93 % of control | [4] 102 % of control | [10] 97 % of control | [11] 97 % of control

CC(=O)OC1CC(n2cc(C)c(=O)[nH]c2=O)OC1CO (stereo not drawn)
inactive: dose: 100.0 mg/kg/injection, schedule: Q01DX005 (ip), vehicle: saline 112 % of control | dose: 200.0 mg/kg/injection, schedule: Q01DX005 (ip), vehicle: saline 109 % of control

COc1cc2c(cc1I)-c1c(cc(OC)c(OC)c1OC)CC[C@@H]2NC(C)=O
inactive: dose: 17.0 mg/kg/injection, schedule: Q01DX Z (ip), vehicle: carboxymethylcellulose (CMC) 102 % of control | dose: 26.0 mg/kg/injection, schedule: Q01DX Z (ip), vehicle: carboxymethylcellulose (CMC) 108 % of control | [12] 119 % of control | dose: 49.0 mg/kg/injection, schedule: Q01DX Z (ip), vehicle: carboxymethylcellulose (CMC) 103 % of control | dose: 50.0 mg/kg/injection, schedule: Q01DX009 (ip), vehicle: saline sonified 108 % of control | [13] 117 % of control | dose: 73.0 mg/kg/injection, schedule: Q01DX Z (ip), vehicle: carboxymethylcellulose (CMC) 103 % of control | [14] 102 % of control | dose: 100.0 mg/kg/injection, schedule: Q01DX009 (ip), vehicle: saline sonified 106 % of control | [3] 99 % of control | dose: 110.0 mg/kg/injection, schedule: Q01DX Z (ip), vehicle: carboxymethylcellulose (CMC) 103 % of control | dose: 200.0 mg/kg/injection, schedule: Q01DX009 (ip), vehicle: saline sonified 119 % of control | [4] 99 % of control

COc1ccccc1CN1CCCN(Cc2ccccc2OC)C1c1ccc(N(C)C)cc1
inactive: dose: 50.0 mg/kg/injection, schedule: Q01DX001 (ip), vehicle: saline 98 % of control | [15] 98 % of control | [16] 95 % of control | [17] 88 % of control

Clc1ccc2c(NC3CCC(NC4CCCCC4)CC3)ccnc2c1 (stereo not drawn)
inactive: dose: 7.0 mg/kg/injection, schedule: Q01DX Z (ip), vehicle: carboxymethylcellulose (CMC) 102 % of control | dose: 10.0 mg/kg/injection, schedule: Q01DX Z (ip), vehicle: carboxymethylcellulose (CMC) 96 % of control | dose: 16.0 mg/kg/injection, schedule: Q01DX Z (ip), vehicle: carboxymethylcellulose (CMC) 98 % of control
